Measurements from article PMC12797250, “Structure–activity relationships can be directly extracted from high-throughput crystallographic evaluation of fragment elaborations in crude reaction mixtures” (Chemical Science, 2025).

Tests used:
PHIP(2) [1] = biological target: T1, PHIP(2) (Homo sapiens, UniProt Q8WWQ0); assay: grating-coupled interferometry (waveRAPID), immobilised PHIP([…]); assay type: binding
T1 construct: second bromodomain

PHIP(2) [2] = biological target: T1, PHIP(2); assay: X-ray crystallography, crystal soak; assay type: binding; conditions: acetylated lysine site; soak 8 mM, 24 h, 4 °C, 20% ethylene glycol, pH about 5.6; flipped and translated pose

CNC(=O)N1CCN(C(=O)c2ccc(COc3ccccc3)o2)CC1 [LAT33]
Kd (PHIP(2) [1]): 18 µM

CC1=Nc2ccc(C(=O)N3CCN(C(=O)NC(C)(C)C)CC3)cc2C1(C)C [LAT39]
X-ray crystallography, crystal soak (PHIP(2) [2]): long extensions towards the solvent (7FV8, LAT25 and 7FUZ, LAT39)
